Measurements from paper PMC7037682, “Herb–Drug Interaction of Red Ginseng Extract and Ginsenoside Rc with Valsartan in Rats” (Molecules, 2020).

Columns and labels:
[1] = parameters: method as in PMID 25297453, PMID 22139693, PMID 26725427; conditions: rats ref 23, 39, 40; cited from earlier work
[2] = molecular target: T1, OATP1B1 (Homo sapiens, UniProt Q9Y6L6); test: Inhibition of OATP1B1-mediated [3H]estrone-3-sulfate uptake in HEK293-OATP1B1 cells
T1 sequence (Q9Y6L6 1-691): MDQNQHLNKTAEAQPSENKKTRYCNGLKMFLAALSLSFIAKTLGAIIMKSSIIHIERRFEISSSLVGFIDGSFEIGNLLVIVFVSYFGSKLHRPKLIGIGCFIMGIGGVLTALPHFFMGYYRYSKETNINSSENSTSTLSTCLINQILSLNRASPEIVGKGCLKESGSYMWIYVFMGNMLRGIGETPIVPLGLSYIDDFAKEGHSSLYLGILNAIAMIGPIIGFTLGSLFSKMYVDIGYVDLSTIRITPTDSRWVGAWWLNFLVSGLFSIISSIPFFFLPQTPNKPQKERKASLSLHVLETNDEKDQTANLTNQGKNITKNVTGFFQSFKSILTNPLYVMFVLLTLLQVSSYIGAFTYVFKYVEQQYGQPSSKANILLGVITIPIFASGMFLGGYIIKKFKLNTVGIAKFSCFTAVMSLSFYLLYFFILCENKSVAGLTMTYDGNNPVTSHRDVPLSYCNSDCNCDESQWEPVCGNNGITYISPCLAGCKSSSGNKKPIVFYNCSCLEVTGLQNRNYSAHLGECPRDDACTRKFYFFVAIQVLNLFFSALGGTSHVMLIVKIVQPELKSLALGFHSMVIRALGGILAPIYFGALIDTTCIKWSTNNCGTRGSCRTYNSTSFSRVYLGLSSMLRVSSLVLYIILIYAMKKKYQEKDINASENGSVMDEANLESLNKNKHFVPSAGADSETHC
Method: (§1) HEK293 cells overexpressing the OCT1, OCT2, OAT1, OAT3, OATP1B1, and OATP1B3 transporters (HEK293-OCT1, -OCT2, -OAT1, -OAT3, -OATP1B1, and -OATP1B3, respectively) and HEK293-mock cells (Corning Life Sciences; Woburn, MA, USA) were used and characterized as previously described.
(§2) HEK293 cells overexpressing drug transporters and HEK293-mock cells were seeded in poly-D-lysine-coated 96-well plates at a density of 10^5 cells/well and were cultured in DMEM supplemented with 10% FBS, 5 mM non-essential amino acids, and 2 mM sodium butyrate in a humidified atmosphere with 8% CO2 at 37 °C.
(§3) To examine the effects of ginsenosides and typical inhibitors on transporter activity, aliquots (100 μL) of HBSS containing the probe substrate and ginsenosides or typical inhibitors were added to the cells after aspirating pre-incubated HBSS. The concentrations and probe substrates were as follows: 0.1 μM [^3H]MPP^+ for OCT1 and OCT2, 0.1 μM [^3H]PAH for OAT1, 0.1 μM [^3H]ES for OAT3 and OATP1B1, and 0.1 μM [^3H]EG for OATP1B3. […] Then the uptake of probe substrates into HEK293-mock cells and HEK293-OCT1, -OCT2, -OAT1, -OAT3, -OATP1B1, and -OATP1B3 cells in the presence and absence of typical inhibitor or each ginsenoside with previously described concentration range was measured for 5 min. Immediately after placing the plates on ice, the cells were washed three times with 100 μL of ice-cold HBSS, followed by lysing with 50 μL of 10% SDS solution and mixing with 150 μL of Optiphase cocktail solution (Perkin Elmer Inc., Boston, MA, USA). The radioactivity of the probe substrates in the cells was determined using a liquid scintillation counter.
(§4) In the inhibition studies, the uptake rate of substrate by HEK293 cells overexpressing the respective transporters was used as the control (100%) and the uptake rate of substrates in the presence of typical inhibitors or ginsenosides expressed as a percentage of the control. The inhibition data were fitted to an inhibitory effect model using Sigma plot (version 10.0; Systat Software Inc., San Jose, CA, USA). IC50 value indicated the half-maximal inhibitory concentration of the inhibitor.

[3] = molecular target: T2, OATP1B3 (Homo sapiens, UniProt Q9NPD5); test: Inhibition of OATP1B3-mediated valsartan uptake in HEK293-OATP1B3 cells; format: cell-based; parameters: host or cells: HEK293; conditions: 5 μM valsartan, 5 min
T2 sequence (Q9NPD5 1-702): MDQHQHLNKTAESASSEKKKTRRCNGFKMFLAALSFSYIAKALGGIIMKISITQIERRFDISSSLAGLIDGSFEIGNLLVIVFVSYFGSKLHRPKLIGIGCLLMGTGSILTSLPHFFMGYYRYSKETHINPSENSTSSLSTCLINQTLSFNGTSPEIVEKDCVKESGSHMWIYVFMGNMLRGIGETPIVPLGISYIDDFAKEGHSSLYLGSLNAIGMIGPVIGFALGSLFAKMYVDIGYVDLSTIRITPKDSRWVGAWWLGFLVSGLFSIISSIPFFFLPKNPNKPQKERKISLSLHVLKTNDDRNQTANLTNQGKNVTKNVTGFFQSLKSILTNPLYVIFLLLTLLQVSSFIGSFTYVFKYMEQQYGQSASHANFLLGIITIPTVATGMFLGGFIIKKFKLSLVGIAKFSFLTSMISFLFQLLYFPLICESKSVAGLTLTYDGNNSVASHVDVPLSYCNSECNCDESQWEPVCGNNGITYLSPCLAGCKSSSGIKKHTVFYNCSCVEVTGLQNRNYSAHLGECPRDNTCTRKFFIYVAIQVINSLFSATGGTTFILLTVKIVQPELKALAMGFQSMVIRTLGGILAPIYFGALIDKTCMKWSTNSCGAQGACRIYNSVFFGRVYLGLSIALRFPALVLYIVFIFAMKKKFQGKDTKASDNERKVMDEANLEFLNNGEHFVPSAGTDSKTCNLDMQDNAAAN
Method: (§5) Transporter mediated uptake of probe substrates or valsartan was calculated by subtracting the uptake rate of probe substrates or valsartan into HEK293-mock cells from that into HEK293 cells expressing respective transporters.

[4] = molecular target: T2, OATP1B3; test: Inhibition of OATP1B3-mediated [3H]estradiol-17β-D-glucuronide uptake in HEK293-OATP1B3 cells
Method: as §1, §2, §3, §4

[5] = molecular target: T1, OATP1B1; test: Inhibition of OATP1B1-mediated valsartan uptake in HEK293-OATP1B1 cells; format: cell-based; parameters: host or cells: HEK293; conditions: 5 μM valsartan, 5 min
Method: as §5

[6] = Literature rifampin plasma concentration in rats after oral 20 mg/kg; format: in vivo, rat; conditions: oral rifampin 20 mg/kg, from literature plasma concentration and protein binding ref 23, 39, 40
[7] = parameters: method as in PMID 25297453, PMID 22139693, PMID 26725427; conditions: rats, cited from earlier work

IC50 [2]: 28.6 µM | IC50 [3]: 3.6 µM | IC50 [4]: 810 nM | IC50 [5]: 13.8 µM | unbound concentration of rifampin [6]: 4.7 to 22.9 µM
SMILES: CO[C@H]1/C=C/O[C@@]2(C)Oc3c(C)c(O)c4c(O)c(c(/C=N/N5CCN(C)CC5)c(O)c4c3C2=O)NC(=O)/C(C)=C\C=C\[C@H](C)[C@H](O)[C@@H](C)[C@@H](O)[C@@H](C)[C@H](OC(C)=O)[C@@H]1C [Rifampin, rifampin, reference compound]
protein binding of rifampin [1]: 23.1% | Cmax of rifampin ([7]; oral rifampin 20 mg/kg ref 23, 39, 40): 15.7 to 24.5 µg/mL | plasma concentration of rifampin ([7]; oral rifampin 20 mg/kg, for 12 h ref 23, 39, 40): over 5 μg/mL
